Non-standard residues stand in square brackets, D forms with d. Residues, ends and D or L forms follow the SMILES beside them. *: point of attachment. Succinimide(1-Et,3-yl) = CCN1C(=O)CC(*)C1=O
Key:
[1] = target: T1, rat NMUR1-TTG (Rattus norvegicus, UniProt Q9JJI5); experiment: FLIPR calcium mobilization assay, rat NMUR1-TTG; format: cell-based; parameters: expressed in transfected cells; host or cells: FLP-In CHO or HEK-293 FLP-In cells (pcDNA5)
T1 sequence (Q9JJI5 1-425): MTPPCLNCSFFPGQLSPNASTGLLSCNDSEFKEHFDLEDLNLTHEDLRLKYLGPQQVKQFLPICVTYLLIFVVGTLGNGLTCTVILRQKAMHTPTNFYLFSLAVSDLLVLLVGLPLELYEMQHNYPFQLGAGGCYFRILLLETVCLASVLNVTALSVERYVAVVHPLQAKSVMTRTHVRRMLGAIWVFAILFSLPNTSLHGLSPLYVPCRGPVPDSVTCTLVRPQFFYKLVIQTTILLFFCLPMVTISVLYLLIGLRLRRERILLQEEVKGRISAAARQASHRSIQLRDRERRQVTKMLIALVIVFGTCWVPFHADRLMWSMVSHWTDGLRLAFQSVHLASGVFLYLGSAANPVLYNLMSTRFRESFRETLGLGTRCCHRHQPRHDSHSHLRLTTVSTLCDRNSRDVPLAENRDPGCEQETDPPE
Description: Human, mouse or rat cDNAs encoding NMUR1 or NMUR2 (as described in Howard et al. Nature 406: 70-74 (2000) were subcloned in pcDNA5 (Invitrogen) and transfected into FLP-In CHO cells and HEK-293 FLP-In cells purchased from Invitrogen (Carlsbad, Calif.) using lipofectamine (Invitrogen). The Flp-In system allows integration and expression of a particular gene of interest at a specific genomic location utilizing the Flp recombinase from yeast. The transfected cells were selected by growth in medium containing 200 μg/mL hygromycin (Invitrogen). Populations were frozen at early passage numbers, and these stocks were used for further studies. Stable clones that expressed the mRNAs were identified functionally by FLIPR as well as by RT-PCR. […] Two different rodent NMUR1 cell lines were thus generated: one with the codon as predicted from the genomic databases and another cell line with an engineered methionine (ATG) as the start codon. Additionally, stable cell lines expressing the human receptors were generated in HEK-293/aeq17 cells which stably express the aequorin gene under the CMV promoter. The human NMUR2 cDNA was cloned into pcDNA3.1 and human NMUR1 was subcloned into pIRES-puro (Clontech, Mountain View, Calif.), after transfection cells were selected in media containing G418 and either hygromycin (NMUR2) or puromycin (NMUR1).
The NMU receptors signal primarily through Gαq/11 proteins; therefore calcium mobilization assays can be utilized for functional activity.
Stable cell lines expressing human and or rodent NMUR1 or human NMUR2 receptors were plated at a density of 12,000 cells per well overnight on poly-lysine coated 384-well black-walled plates. The following day, the media was removed from the plates and the cells were subsequently loaded with Fluo-3 (Molecular Probes), a calcium sensitive dye, diluted in FLIPR buffer (1× Hank's buffered saline containing 20 mM HEPES, 0.1% BSA, 2.5 mM probenecid (Sigma) and 1.6 mM TR40). All reagents are from Invitrogen unless otherwise noted. Peptide stocks were resuspended in DMSO at a stock concentration of 2 mM and diluted in FLIPR buffer on the day of the experiment to a 4 μM working stock solution.
After a 90 minute incubation at room-temperature, cell plates were loaded onto a FLIPR (Molecular Devices) to monitor cellular fluorescence (excitation=488 nm; emission=540 nm) before and after compound/peptide addition. Eight to twelve point dose responses were tested on NMUR-expressing cell lines using FLIPR with 1 μM peptide as the highest dose. The response after peptide addition was taken as the maximum fluorescence units minus the fluorescence immediately prior to stimulation for each well. EC50 values were calculated using GraphPad Prism (San Diego, Calif.) software.
In vitro responses of Neuromedin U receptor agonists (NMU1 to NMU25) in the FLIPR assay for human (Table 3), mouse (Table 4) and rat (Table 5) NMUR1 and NMUR2. EC50s are reported in nM values. Percent activity refers to the maximum response at 1 μM compared to the hNMU-25 response at the same concentration. NT=not tested.

[2] = target: hNMUR2 (Homo sapiens, UniProt Q9GZQ4); experiment: 125I-hNMU-25 binding assay, human NMUR2 membranes; parameters: expressed in transfected cells; host or cells: HEK-293 FLP-In cells (pcDNA5); HEK-293/aeq17 lines (pcDNA3.1) were also made; % inhibition of NMU-25 binding / % Activity: concentration or dose not given beside the values; conditions: human R2
Protocol: Confluent cell monolayers expressing NMU receptors (the HEK cells described above) were harvested with phosphate buffered saline, collected by centrifugation, and resuspended in membrane buffer (50 mM TrisCl pH 7.4, 5 mM MgCl2, 1× Protease Inhibitor Cocktail, 10 μM phosphoramidon). After the cell pellet was homogenized, the solution was centrifuged at 18,000 rpm for 20 minutes at 4° C. The pellet was resuspended in membrane buffer to yield a final concentration of 0.5-5 μg/μL of membrane and stored at −80° C.
Experiments were performed in assay buffer (25 mM TrisCl, pH 7.4, 10 mM MgCl2, 2 mM EDTA, 1× Protease Inhibitor Cocktail, 100 μg/mL Bacitricin, 10 μM phosphoramidon) in 200 μL volumes in a 96-well format using 2-5 μg of membrane and 0.1 nM ^125I-hNMU-25 (about 12,000 cpm/well). For non-specific binding, 1 μM hNMU-25 was added. About 5 μL of peptides were added to measure antagonist activity, and the entire reaction was incubated at room temperature with shaking for 80 minutes. The reaction was terminated by rapid filtration through 0.3% poly-ethylenimine presoaked Millipore 96-well filter plates and washed with ice-cold buffer (5 mM TrisCl pH 7.4, 10 mM MgCl2, 2.5 mM EDTA, 0.04% Triton X-100). Plates were air-dried overnight at room temperature and recovered radioactivity was determined by standard scintillation counting. IC50 values were determined using GraphPad Prism software.
Concentration-response curves and radioligand-binding data were fitted using Prism (GraphPad Software). Results are summarized below in Tables 8 and 9.

Sequence of hNMUR2 (Q9GZQ4 whole entry): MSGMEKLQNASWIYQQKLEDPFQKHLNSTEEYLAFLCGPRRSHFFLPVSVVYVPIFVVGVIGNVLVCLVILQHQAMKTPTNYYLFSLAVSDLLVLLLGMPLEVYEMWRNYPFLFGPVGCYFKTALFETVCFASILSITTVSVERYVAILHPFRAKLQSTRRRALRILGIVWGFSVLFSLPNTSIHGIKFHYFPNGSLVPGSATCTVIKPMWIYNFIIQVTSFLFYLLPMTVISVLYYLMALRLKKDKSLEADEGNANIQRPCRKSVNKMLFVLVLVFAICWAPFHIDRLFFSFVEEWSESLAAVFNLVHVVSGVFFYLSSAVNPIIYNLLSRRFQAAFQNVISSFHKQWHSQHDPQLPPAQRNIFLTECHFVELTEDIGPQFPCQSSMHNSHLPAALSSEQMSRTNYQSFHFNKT

With `CCN1C(=O)CC(SC[C@H](NC(C)=O)C(=O)N[C@@H](Cc2ccccc2)C(=O)N[C@@H](CCCNC(=N)N)C(=O)N[C@H](C(=O)N[C@@H](CC(=O)O)C(=O)N[C@@H](CCC(=O)O)C(=O)N[C@@H](CCC(=O)O)C(=O)N[C@@H](Cc2ccccc2)C(=O)N[C@@H](CCC(N)=O)C(=O)N[C@@H](CO)C(=O)N2CCC[C@H]2C(=O)N[C@@H](Cc2ccccc2)C(=O)N[C@@H](C)C(=O)N[C@@H](CO)C(=O)N[C@@H](CCC(N)=O)C(=O)N[C@@H](CO)C(=O)N[C@@H](CCCNC(=N)N)C(=O)NCC(=O)N[C@@H](Cc2ccc(O)cc2)C(=O)N[C@@H](Cc2ccccc2)C(=O)N[C@H](C)C(=O)N[C@@H](Cc2c[nH]c3ccccc23)C(=O)N[C@@H](CCCNC(=N)N)C(=O)N2CCC[C@H]2C(=O)N[C@@H](CCCNC(=N)N)C(=O)N[C@@H](CC(N)=O)C(N)=O)C(C)C)C1=O` (stereo partly shown) [NMU13] (Ac-C(Succinimide(1-Et,3-yl))FRVDEEFQSPFASQSRGYF[dA]WRPRN-NH2) the “% Activity” value ([1]; functional, rat R1-TTG, relative to native hNMU responses) was 94%, the “% Activity” value ([1]; maximum response at 1 μM compared to hNMU-25, rat NMUR1-TTG) was 94.6% and the IC50 ([2]; binding) was > 1 µM. For the same compound, the “% inhibition of NMU-25 binding” value [2] was 48%.
